Columns and labels:
[1] = target: T1, AtD14 fused to firefly luciferase (D14::LUC) (Arabidopsis thaliana, UniProt Q9SQR3); test: Luminometer (luciferase) assay: D14::LUC degradation in transgenic Arabidopsis seedlings; format: in vivo; conditions: for D14 degradation in the luciferase assay: 0.01–100 μM range, racemic mixtures
T1 construct: a pDONOR207 carrying the D14 promoter fused to the D14 CDS; expressed in transfected cells
T1 sequence (Q9SQR3 1-267): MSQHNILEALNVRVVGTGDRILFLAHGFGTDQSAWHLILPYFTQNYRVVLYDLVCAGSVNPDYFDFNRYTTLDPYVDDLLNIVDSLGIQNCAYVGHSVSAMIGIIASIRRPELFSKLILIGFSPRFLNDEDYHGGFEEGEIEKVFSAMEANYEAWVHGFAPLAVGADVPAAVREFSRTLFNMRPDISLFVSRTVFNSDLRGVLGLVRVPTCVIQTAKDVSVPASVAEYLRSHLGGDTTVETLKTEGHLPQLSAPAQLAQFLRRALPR
Description: A binary D14p::D14::LUC vector was obtained by LR-recombination (Invitrogen) of a pDONOR207 carrying the D14 promoter fused to the D14 CDS ([Chevalier et al., 2014]) in pGWB435 ([Nakagawa et al., 2007]). Transgenic D14::D14::LUC Arabidopsis plants were generated by agroinfiltration of Col-0 plants using the floral dip method ([Clough and Bent, 1998]). Seeds were surface-sterilized with an 8% aqueous solution of commercial bleach in distilled water for 5 min and rinsed five times with sterile distilled water. Sterile seeds were plated on MS medium (pH 5.8) ([Murashige and Skoog, 1962]) without sucrose solidified with 1.2% Agar, and kept at 4 °C for 3 d (stratification). Seeds were then incubated for 7 d in a growth chamber at 25 °C and a photoperiod of 16 h light/8 h dark. SL analogues and mimics (Figs 1, 2) were accurately weighed and dissolved in acetone at 10^–2 M. Five different concentrations (10^–4 M, 10^–5 M, 10^–6 M, 10^–7 M, 10^–8 M) were prepared by 1:10 serial dilutions in liquid MS medium, together with blank controls containing corresponding water and acetone volumes in the medium. D-Luciferin (potassium salt) stock was prepared at 25 mg ml^–1 in DMSO, aliquoted and stored at –80 °C until use; all other solutions were prepared just before the assay. Using tweezers, 7-d-old Arabidopsis seedlings were placed in a 96-well microtiter plate with their cotyledons facing up (one seedling per well, in 170 µl of liquid MS medium), and 15 µl of luciferin (0.125 mg ml^–1, diluted 1:200 in MS from stock) was added to each well, corresponding to 1.875 µg. The plate was covered with a transparent film with a hole poked above each well to allow for gas exchange. Measurements were taken every 15 min in a multimode reader (LB942 Tristar2 S, Berthold Technologies) for the following 24 h; the signal was allowed to stabilize for 2–3 h in the light before treatments were started by adding 15 µl per well of the different SLs in MS medium, thus reaching a final volume in each well of 200 µl and 9.4 µg ml^– of luciferin. Appropriate blank controls were added as well. Each treatment was applied to a minimum of 16 wells (seedlings), each of which was measured individually over time. The percentage efficacy of each compound molecule was calculated 6 h after treatment as a function of the decrease in D14::LUC-emitted luminescence with respect to (+)-GR24 1 µM (i.e. GR24^5DS), assuming that the latter, minus the drift of the corresponding blank control, had 100% efficacy. For calibration purposes, SL analogues that had already been characterized, namely (±)-ST23b, (±)-EGO10, and (±)-EDOT ([Prandi et al., 2011]), were tested across the same concentration range, along with (±)-strigol (Chiralix, NL). The half maximal-effective concentration (EC50) for (+)-GR24 was calculated by linear regression fitting of the data (n=5, with at least three individual seedlings and values being pooled for each replicate) at the different concentrations, minus the values for acetone-treated samples (negative controls) and normalized in relation to (+)-GR24 0.01 μM, which was set to 0%. Confidence intervals at 95% were used to express errors of the means.
D14 is a target for proteasome-dependent destruction upon interaction with its ligand(s), which explains why fluorescence of D14::GFP fusion proteins is quenched upon SL treatment in transgenic Arabidopsis ([Chevalier et al., 2014]). We exploited this molecular network to implement a quantitative activity assay that inversely correlated luminescence to perception of SL-related molecules in transgenic Arabidopsis expressing D14::LUC under the control of the D14 endogenous promoter. […] We then used the assay to test various SLs in the same range, namely strigol as an example of natural SLs; ST23b, EGO10, and EDOT (Fig. 1, all used as rac mixtures) as examples of active SL analogues; and the new set of SL-D-lactams rac-1–9 (Fig. 2).
Fig. 4. Luciferase assay. […]

[2] = system: Phelipanche aegyptiaca seeds; test: Germination-inducing activity on parasitic seeds; format: in vivo; conditions: for Fold lower potency than rac-GR24 (germination): compared with rac-GR24
Description: Seeds of Phelipanche aegyptiaca were collected from field-grown tomato in the West Galilee region of Israel. The seeds were stored in glass vials in the dark at room temperature until their use in germination tests. For the preparation of test solutions, the compound to be tested was weighed out very accurately, dissolved in acetone at 10^–2 M and then diluted with sterile distilled water to the desired concentrations. All solutions were prepared just before use. Seeds were surface-sterilized and preconditioned as described by [Bhattacharya et al. (2009)]. Briefly, after exposure for 5 min to 50% (v/v) aqueous solutions of commercial bleach (2% hypochlorite), seeds were rinsed with sterile distilled water. For preconditioning, seeds were placed on glass fibre filter discs using a sterile toothpick (approximately 50 seeds per disc); the glass fibre discs were placed on two filter paper discs, wetted with sterile distilled water, and incubated at 25 °C in the dark for 6 d. The preconditioned seeds were then allowed to dry completely in a laminar flow cabinet, after which they were treated with each compound at five different concentrations: 10^–5 M, 10^–6 M, 10^–7 M, 10^–8 M, and 10^–9 M. Their germination rate was evaluated under a stereomicroscope 7 d after the beginning of the treatment. For each concentration, at least 250 seeds were scored; synthetic SL rac-GR24 was included as a positive control across the same range of concentrations, while a solution of 0.001% acetone in sterile distilled water was included as a negative control. Seeds were scored as germinated if the radicle protruded through the seed coat 1 week after treatment. Germination values were normalized to those of rac-GR24 at 10^–7 M.
Fig. 3. Germination-inducing activity on Phelipanche aegyptiaca seeds of rac-1–9 and of strigol, ST23b, EGO10, and EDOT at different concentrations, compared to rac-GR24 0.1 μM as a positive control and to acetone as a negative control. […] The x-axis indicates the range of concentrations. Data are means (±SD) of n>250 seeds. Confidence intervals at 95% are used to express errors of the means. The data for rac-1–9 are indicated by ‘D-lactams’.

| SMILES | D14 degradation in the luciferase assay [1] | Fold lower potency than rac-GR24 (germination) [2] | Concentration at which high germination activity was shown ([2]; high activity only at this concentration, germination normalized to rac-GR24 0.1 μM) [µM] | Germination efficiency at 1 μM ([2]; 1 μM) | Concentration at which some germination activity could still be detected ([2]; tested 10^-9 to 10^-5 M) [µM] | Activity in the luciferase assay at 10 μM ([1]; 10 μM) | Activity in the luciferase assay at 100 μM ([1]; 100 μM) | Germination activity at 10 μM ([2]; 10 μM) |
| --- | --- | --- | --- | --- | --- | --- | --- | --- |
| CC1=C[C@H](O/C=C2/C(=O)O[C@@H]3c4ccccc4C[C@H]23)NC1=O (racemic) [rac-3] | almost inactive | ~ 100 fold | 10 | – | – | – | – | – |
| CC1=C[C@H](O/C=C2/C(=O)O[C@H]3c4ccccc4C[C@@H]23)NC1=O (racemic) [rac-4] | weak activity | ~ 10 fold | – | efficiency comparable to GR24 | 1 | – | – | – |
| CC1=CC(C2Cc3c(n(C)c4ccccc34)C2=O)NC1=O (racemic) [rac-9] | substantially inactive | – | – | – | – | inactive | partial agonist | inactive |
